We go through two compounds from patent publication US6740673B2, “Quarternary ammonium compounds” (UCB Farchim SA, priority 1998, dated 2004).

The experiment deals with cough responses induced by citric acid (1M) aerosol in conscious guinea-pigs. The experiment is described as follows: Antitussive activity against citric acid aerosol-induced cough in conscious guinea-pigs. In kind it is in vivo, guinea-pig (male albino Dunkin-Hartley). As to conditions: aerosol pre-treatment at 10.0 mg/ml immediately before citric acid (1M) exposure; for inhibition of cough responses compared with vehicle: vs vehicle (distilled water), 15 minute observation period. The source says: The following method was one of the general methods available to determine the antitussive activity of the compounds of the present invention.
Male albino Dunkin-Hartley strain guinea-pigs (weight 300-400 g) were supplied by Harlan UK Ltd., Bicester, Oxon, UK.
The method used was modified from that described by Adcock J. J., Schneider C. and Smith T. W., “Effects of Morphine and a Novel Opioid Pentapeptide BW443C, on Cough, Nociception and Ventilation in the Unanaesthetized Guinea-pig”, Br. J. Pharmacol., 93, 93-100 (1988). Individual conscious guinea-pigs were placed unrestrained into a sealed purpose built perspex exposure chamber (3,000 cm^3 volume) and allowed to acclimatize prior to aerosol administration.
Cylinder air was introduced into the exposure chamber at a flow rate of 1 liter/min, maintained by a needle valve and monitored by a rotameter. From the rotameter the air passed through the cup of an ultrasonic nebulizer (DeVilbis UltraNeb 2000) which was used to generate aerosols of drug or citric acid at 0.15 ml/min. A Fleisch pneumotachograph, connected to a differential pressure transducer (Grass model PT5) was attached to the outflow from the exposure chamber and provided a measurement of airflow from the chamber. […]
Cough responses were induced by exposure to an aerosol of citric acid (1M) for 10 minutes. Animals were continuously monitored by trained observer, and the number of coughs were counted during a 15 minute period from commencement of the citric acid aerosol administration. […]
The three types of response were differentiated primarily by sound and visual observation. […] Data recorded for individual guinea-pigs on the Poh-Ne-Mah system was stored on an optical disk. Each cough was marked on the Grass polygraph paper trace, and from these record numbers, frequency and time of onset of coughs were determined. […]
Quantities of drugs were weighed out and dissolved in a vehicle. […] The sequence of pre-treatment administration was determined according to a 4×4 Latin Square design. […]

Turning to `C[N+](C)(CC(=O)Nc1ccccc1)CC(=O)N1CCc2ccccc21.[Cl-]` [Compound 2, N-[(1-Indolinyl)carbonylmethyl]-N-(phenylcarbamoylmethyl) dimethylammonium chloride], the “inhibition of cough responses compared with vehicle” value came out at 56%.
Take `CC[N+](CC)(CC)CC(=O)N1CCc2ccccc21` [Compound 3, N-[(1-Indolinyl)carbonylmethyl]triethylammonium chloride]: the “inhibition of cough responses compared with vehicle” value worked out at 36%. Under “time to first recorded cough”, the “prolongation of mean latency of cough onset” value is 2.5 fold.
